Experimental data from US7998989B2, “2-Imino-1,3-thiazoline-based compounds and T-type calcium channel inhibitors containing the same” (Korea Institute of Science and Technology, priority 2007, dated 2011).

Assays:
[1] = biological target: T1, α1G T-type calcium channel (Homo sapiens, UniProt O43497); test: Assay for % inhibiting activity against T-type calcium channel using FDSS6000 (fluo-3 calcium imaging, KCl activation); format: cell-based; conditions: HEK293, 10 μM; HEK293 cells stably expressing α1G T-type calcium channel and Kir2.1; compounds of the examples; read-out: FDSS (% inhibition)/10uM
T1 construct: host or cells: HEK293
T1 sequence (O43497 whole entry): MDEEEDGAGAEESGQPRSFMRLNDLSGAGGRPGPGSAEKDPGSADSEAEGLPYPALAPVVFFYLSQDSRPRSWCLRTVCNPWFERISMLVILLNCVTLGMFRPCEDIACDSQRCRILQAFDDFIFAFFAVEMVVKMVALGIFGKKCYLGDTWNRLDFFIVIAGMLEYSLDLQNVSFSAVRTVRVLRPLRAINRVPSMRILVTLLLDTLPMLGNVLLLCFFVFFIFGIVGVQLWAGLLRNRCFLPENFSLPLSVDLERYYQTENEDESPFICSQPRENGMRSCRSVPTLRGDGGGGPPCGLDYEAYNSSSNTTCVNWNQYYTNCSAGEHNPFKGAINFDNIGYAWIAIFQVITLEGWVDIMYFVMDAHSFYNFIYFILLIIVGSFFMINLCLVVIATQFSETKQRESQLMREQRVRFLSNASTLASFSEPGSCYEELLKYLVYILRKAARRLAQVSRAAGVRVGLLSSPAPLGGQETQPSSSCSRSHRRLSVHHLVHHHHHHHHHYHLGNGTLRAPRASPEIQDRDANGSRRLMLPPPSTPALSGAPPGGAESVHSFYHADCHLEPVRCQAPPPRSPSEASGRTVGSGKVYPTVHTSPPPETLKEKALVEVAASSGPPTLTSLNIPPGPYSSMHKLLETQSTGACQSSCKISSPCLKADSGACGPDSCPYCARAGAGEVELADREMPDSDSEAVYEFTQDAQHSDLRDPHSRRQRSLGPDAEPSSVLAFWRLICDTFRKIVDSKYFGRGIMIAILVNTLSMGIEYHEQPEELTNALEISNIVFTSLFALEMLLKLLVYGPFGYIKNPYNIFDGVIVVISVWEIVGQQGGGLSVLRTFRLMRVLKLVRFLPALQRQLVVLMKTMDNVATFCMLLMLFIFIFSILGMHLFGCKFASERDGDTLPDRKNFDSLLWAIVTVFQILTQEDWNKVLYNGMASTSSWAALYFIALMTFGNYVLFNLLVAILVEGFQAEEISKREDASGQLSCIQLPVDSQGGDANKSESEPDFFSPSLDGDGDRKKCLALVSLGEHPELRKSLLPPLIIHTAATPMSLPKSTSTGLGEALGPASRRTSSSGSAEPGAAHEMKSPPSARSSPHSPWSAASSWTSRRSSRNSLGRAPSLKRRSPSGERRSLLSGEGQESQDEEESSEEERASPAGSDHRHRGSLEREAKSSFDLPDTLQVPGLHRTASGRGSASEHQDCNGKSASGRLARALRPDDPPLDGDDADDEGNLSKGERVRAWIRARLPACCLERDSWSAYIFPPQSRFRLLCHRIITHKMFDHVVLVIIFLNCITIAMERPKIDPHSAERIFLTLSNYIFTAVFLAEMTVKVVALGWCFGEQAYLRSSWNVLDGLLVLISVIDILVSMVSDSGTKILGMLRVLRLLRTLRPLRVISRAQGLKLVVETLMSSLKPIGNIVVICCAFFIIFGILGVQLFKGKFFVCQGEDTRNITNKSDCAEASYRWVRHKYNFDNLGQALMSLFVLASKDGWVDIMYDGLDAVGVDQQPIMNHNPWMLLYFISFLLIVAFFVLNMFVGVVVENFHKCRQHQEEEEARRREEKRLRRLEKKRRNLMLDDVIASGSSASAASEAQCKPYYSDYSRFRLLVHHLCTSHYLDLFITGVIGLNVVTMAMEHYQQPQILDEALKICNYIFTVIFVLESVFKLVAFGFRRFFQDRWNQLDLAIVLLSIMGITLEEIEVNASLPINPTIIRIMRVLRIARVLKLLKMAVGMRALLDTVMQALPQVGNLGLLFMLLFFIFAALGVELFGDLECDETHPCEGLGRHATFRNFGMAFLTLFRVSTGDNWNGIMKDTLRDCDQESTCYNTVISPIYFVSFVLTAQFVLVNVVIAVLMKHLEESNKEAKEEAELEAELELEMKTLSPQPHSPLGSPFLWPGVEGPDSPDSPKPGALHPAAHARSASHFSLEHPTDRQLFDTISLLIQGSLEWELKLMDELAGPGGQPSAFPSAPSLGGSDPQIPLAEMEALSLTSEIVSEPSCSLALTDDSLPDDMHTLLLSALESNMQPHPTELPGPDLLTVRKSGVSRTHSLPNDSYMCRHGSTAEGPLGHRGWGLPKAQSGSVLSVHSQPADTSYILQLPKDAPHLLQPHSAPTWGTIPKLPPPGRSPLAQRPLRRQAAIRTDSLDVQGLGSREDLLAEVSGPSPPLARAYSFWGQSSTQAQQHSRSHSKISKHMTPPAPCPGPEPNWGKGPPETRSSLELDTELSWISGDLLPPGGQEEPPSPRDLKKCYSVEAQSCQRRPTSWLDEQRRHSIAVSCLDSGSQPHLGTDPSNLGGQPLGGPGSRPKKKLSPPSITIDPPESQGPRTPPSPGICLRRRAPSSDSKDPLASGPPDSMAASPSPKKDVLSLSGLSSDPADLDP
In short: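 Percent inhibition derived from […] area against untreated control (100%), after 75 s compound pre-exposure and 75 mM KCl activation. Cells: HEK293 with stable α1G plus Kir2.1, fluo-3/AM-labelled (5 μM), assayed in pH 7.4 HEPES containing 10 mM CaCl2.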

| SMILES | inhibition at 10 µM [1] [%] | melting point [°C] |
| --- | --- | --- |
| CCCCc1ccc(NC(=O)CC2CSC(=NC3CCCCC3)N2CCC)cc1.Cl (stereo not shown) [KHG24291, [2-cyclohexylimino-3-(n-propyl)-1,3-thiazolidine-4-yl]-N-(4-n-butylphenyl)-acetamide hydrochloride] | 63.2 | 201.4 |
| CCN1C(=NC2CCCCC2)SCC1CC(=O)NCc1ccc(C)cc1.Cl (stereo not shown) [KHG24292, (2-cyclohexylimino-3-ethyl-1,3-thiazolidine-4-yl)-N-(4-methylbenzyl)-acetamide hydrochloride] | 43.9 | 172.6 |
| CCCN1C(=NC2CCCCC2)SCC1CC(=O)NCc1ccc(C)cc1.Cl (stereo not shown) [KHG24293, [2-cyclohexylimino-3-(n-propyl)-1,3-thiazolidine-4-yl]-N-(4-methylbenzyl)-acetamide hydrochloride] | 55.8 | 189.5 to 191.2 |
| CCCN1C(=NC2CCCCC2)SCC1CC(=O)Nc1ccc(C(C)C)cc1.Cl (stereo not shown) [KHG24294, [2-cyclohexylimino-3-(n-propyl)-1,3-thiazolidine-4-yl]-N-(4-isopropylphenyl)-acetamide hydrochloride] | 65.7 | 207 |
| CCCN1C(=NC2CCCCC2)SCC1CC(=O)Nc1cc([N+](=O)[O-])ccc1F.Cl (stereo not shown) [KHG24295, [2-cyclohexylimino-3-(n-propyl)-1,3-thiazolidine-4-yl]-N-(2-fluoro-5-nitrophenyl)-acetamide hydrochloride] | 36.2 | 139.2 |
| CCCN1C(=NC2CCCCC2)SCC1CC(=O)Nc1ccc(F)cc1.Cl (stereo not shown) [KHG24296, [2-cyclohexylimino-3-(n-propyl)-1,3-thiazolidine-4-yl]-N-(4-fluorophenyl)-acetamide hydrochloride] | 53.1 | 169.7 |
| CCCN1C(=NC2CCCCC2)SCC1CC(=O)Nc1ccc(C)cc1.Cl (stereo not shown) [KHG24297, [2-cyclohexylimino-3-(n-propyl)-1,3-thiazolidine-4-yl]-N-(4-methylphenyl)-acetamide hydrochloride] | 51 | 188.9 |
| CCCN1C(=NC2CCCCC2)SCC1CC(=O)Nc1ccc(CC)cc1.Cl (stereo not shown) [KHG24298, [2-cyclohexylimino-3-(n-propyl)-1,3-thiazolidine-4-yl]-N-(4-ethylphenyl)-acetamide hydrochloride] | 60.4 | 221.4 |
| Cl.O=C(CC1CSC(=NC2CCCCC2)N1Cc1ccccc1)Nc1ccc(Cl)cc1 (stereo not shown) [KHG24299, (2-cyclohexylimino-3-benzyl-1,3-thiazolidine-4-yl)-N-(4-chlorophenyl)-acetamide hydrochloride] | 45.6 | 199 |
| Cl.O=C(CC1CSC(=NC2CCCCC2)N1Cc1ccccc1)Nc1ccc(Br)cc1 (stereo not shown) [KHG24300, (2-cyclohexylimino-3-benzyl-1,3-thiazolidine-4-yl)-N-(4-bromophenyl)-acetamide hydrochloride] | 36.7 | 181.4 |
| CC(C)c1ccc(NC(=O)CC2CSC(=NC3CCCCC3)N2Cc2ccccc2)cc1.Cl (stereo not shown) [KHG24303, (2-cyclohexylimino-3-benzyl-1,3-thiazolidine-4-yl)-N-(4-isopropylphenyl)-acetamide hydrochloride] | 31.1 | 202.9 |
| Cl.O=C(CC1CSC(=NC2CCCCC2)N1Cc1ccccc1)Nc1ccc(F)cc1 (stereo not shown) [KHG24305, (2-cyclohexylimino-3-benzyl-1,3-thiazolidine-4-yl)-N-(4-fluorophenyl)-acetamide hydrochloride] | 58.9 | 214.1 |
| CCc1ccc(NC(=O)CC2CSC(=NC3CCCCC3)N2Cc2ccccc2)cc1.Cl (stereo not shown) [KHG24306, (2-cyclohexylimino-3-benzyl-1,3-thiazolidine-4-yl)-N-(4-ethylphenyl)-acetamide hydrochloride] | 53.2 | 146.4 |
| Cl.O=C(CC1CSC(=NC2CCCCC2)N1C1CC1)Nc1ccc(Oc2ccccc2)cc1 (stereo not shown) [KHG24315, (2-cyclohexylimino-3-cyclopropyl-1,3-thiazolidine-4-yl)-N-(4-phenoxyphenyl)-acetamide hydrochloride] | 60.8 | 195 |
| CN1C(=NC2CCCCCC2)SCC1C(=O)NCc1cccc(Cl)c1.Cl (stereo not shown) [KHG24336, (2-cycloheptylimino-3-methyl-1,3-thiazolidine-4-yl)-N-(3-chlorobenzyl)-carboxamide hydrochloride] | 60.1 | 230 to 231 |
| CN1C(=NC2CCCCCC2)SCC1C(=O)NCc1ccc(Cl)cc1.Cl (stereo not shown) [KHG24337, (2-cycloheptylimino-3-methyl-1,3-thiazolidine-4-yl)-N-(4-chlorobenzyl)-carboxamide hydrochloride] | 56.6 | 220 to 222 |

| SMILES | inhibition at 10 µM [1] [%] | melting point [°C] |
| --- | --- | --- |
| CN1C(=NC2CCCCCC2)SCC1C(=O)NCc1ccc(Cl)c(Cl)c1.Cl (stereo not shown) [KHG24338, (2-cycloheptylimino-3-methyl-1,3-thiazolidine-4-yl)-N-(3,4-dichlorobenzyl)-carboxamide hydrochloride] | 70.8 | 218 to 219 |
| COc1ccc(CNC(=O)C2CSC(=NC3CCCCCC3)N2C)cc1.Cl (stereo not shown) [KHG24339, (2-cycloheptylimino-3-methyl-1,3-thiazolidine-4-yl)-N-(4-methoxybenzyl)-carboxamide hydrochloride] | 44.2 | 156 to 159 |
| CCN1C(=NC2CCCCC2)SCC1CC(=O)Nc1ccc(F)cc1.Cl (stereo not shown) [KHG24403, (2-cyclohexylimino-3-ethyl-1,3-thiazolidine-4-yl)-N-(4-fluorophenyl)-acetamide hydrochloride] | 49.1 | 196.5 |
| CCCN1C(=NC2CCCCC2)SCC1CC(=O)Nc1ccc(C(F)(F)F)cc1.Cl (stereo not shown) [KHG24404, [2-cyclohexylimino-3-(n-propyl)-1,3-thiazolidine-4-yl]-N-(4-trifluoromethylphenyl)-acetamide hydrochloride] | 64.7 | 173.6 to 174.8 |
| CCCN1C(=NC2CCCCC2)SCC1CC(=O)Nc1ccc(C)c(Cl)c1.Cl (stereo not shown) [KHG24405, (2-cyclohexylimino-3-(n-propyl)-1,3-thiazolidine-4-yl)-N-(3-chloro-4-methylphenyl)-acetamide hydrochloride] | 68.4 | 204.9 |
| CCCCc1ccc(NC(=O)CC2CSC(=NC3CCCCC3)N2Cc2ccccc2)cc1.Cl (stereo not shown) [KHG24406, (2-cyclohexylimino-3-benzyl-1,3-thiazolidine-4-yl)-N-(4-n-butylphenyl)-acetamide hydrochloride] | 34.4 | 156.2 |
| Cl.O=C(CC1CSC(=NC2CCCCC2)N1Cc1ccccc1)Nc1ccc(C(F)(F)F)cc1 (stereo not shown) [KHG24407, (2-cyclohexylimino-3-benzyl-1,3-thiazolidine-4-yl)-N-(4-trifluoromethylphenyl)-acetamide hydrochloride] | 48.7 | 238.5 |
| Cl.O=C(CC1CSC(=NC2CCCCC2)N1Cc1ccccc1)Nc1cc(Cl)ccc1F (stereo not shown) [KHG24408, (2-cyclohexylimino-3-benzyl-1,3-thiazolidine-4-yl)-N-(5-chloro-2-fluorophenyl)-acetamide hydrochloride] | 32.6 | 194.8 |
| CCN1C(=NC2CCCCC2)SCC1CC(=O)Nc1cc(Cl)cc(Cl)c1.Cl (stereo not shown) [KHG24414, (2-cyclohexylimino-3-ethyl-1,3-thiazolidine-4-yl)-N-(3,5-dichlorophenyl)-acetamide hydrochloride] | 61 | 100.5 |
| CCCN1C(=NC2CCCCC2)SCC1CC(=O)Nc1cc(Cl)cc(Cl)c1.Cl (stereo not shown) [KHG24415, [2-cyclohexylimino-3-(n-propyl)-1,3-thiazolidine-4-yl]-N-(3,5-dichlorophenyl)-acetamide hydrochloride] | 64.2 | 109.2 |
| CCCCN1C(=NC2CCCCC2)SCC1CC(=O)Nc1cc(Cl)cc(Cl)c1.Cl (stereo not shown) [KHG24416, [2-cyclohexylimino-3-(n-butyl)-1,3-thiazolidine-4-yl]-N-(3,5-dichlorophenyl)-acetamide hydrochloride] | 59.8 | 153 to 154 |
| CN1C(=NC23CC4CC(CC(C4)C2)C3)SCC1CC(=O)Nc1cc(Cl)cc(Cl)c1.Cl (stereo not shown) [KHG24417, [2-(1-adamantyl)imino-3-methyl-1,3-thiazolidine-4-yl]-N-(3,5-dichlorophenyl)-acetamide hydrochloride] | 59.1 | 238 to 240 |
| Cc1ccc(NC(=O)CC2CSC(=NC34CC5CC(CC(C5)C3)C4)N2C)c(Cl)c1.Cl (stereo not shown) [KHG24418, [2-(1-adamantyl)imino-3-methyl-1,3-thiazolidine-4-yl]-N-(2-chloro-4-methylphenyl)-acetamide hydrochloride] | 56.9 | 234 to 236 |
| COc1ccc(NC(=O)CC2CSC(=NC34CC5CC(CC(C5)C3)C4)N2C)cc1.Cl (stereo not shown) [KHG24419, [2-(1-adamantyl)imino-3-methyl-1,3-thiazolidine-4-yl]-N-(4-methoxyphenyl)-acetamide hydrochloride] | 46.7 | 227 to 229 |
| CCN1C(=NC2CCCCC2)SCC1CC(=O)Nc1ccc(C)cc1Cl.Cl (stereo not shown) [KHG24420, (2-cyclohexylimino-3-ethyl-1,3-thiazolidine-4-yl)-N-(2-chloro-4-methylphenyl)-acetamide hydrochloride] | 58.5 | 115 |
| CCCCN1C(=NC2CCCCC2)SCC1CC(=O)Nc1ccc(C)cc1Cl.Cl (stereo not shown) [KHG24421, (2-cyclohexylimino-3-(n-butyl)-1,3-thiazolidine-4-yl)-N-(2-chloro-4-methylphenyl)-acetamide hydrochloride] | 65.8 | 143 to 144 |
